Here are results for 17 compounds from US10287267B2, “Isoquinolin-3-yl carboxamides and preparation and use thereof” (Samumed, LLC, priority 2016, dated 2019).

One experiment deals with IL-6. The experiment is described as follows: IL-6 inhibition in LPS-stimulated human peripheral blood mononuclear cells (HTRF).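 As to all read-outs here: IL-6 detected by HTRF with an XL665- and Cryptate-labelled anti-IL-6 antibody pair, samples run in duplicate, EC50 obtained from a four-parameter Levenberg-Marquardt curve fit.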 The note with it: Homo sapiens, PBMC; for inhibition at 10 µM: read-out: percent value in parentheses beside EC50 >10 μM; for EC50: Table 9, huPBMCs, LPS 50 ng/mL, 22 hours, dose-response starting from 10 μM. The experiment is classed as cell-based. A general note: TR-FRET usually uses a lanthanide donor and a delayed reading to cut background.

The subject of experiment [1] is α-smooth muscle actin (αSMA) positive LL29 cells. Put plainly: Inhibition of fibrotic process: αSMA in TGF-β1 treated primary human fibroblasts from IPF patients.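 As to all read-outs here: controls were TGF-β1 stimulated wells with DMSO vehicle (positive) and cells given DMSO alone (negative), cultured in F12 medium with 1% fetal bovine serum.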 The experiment is classed as cell-based. Particulars: Homo sapiens, Fibroblast; for EC50: 96 h, Table 8, LL29 fibroblasts from IPF patients, TGF-β1 20 ng/mL, 4 days, dose-response 10 μM to 0.94 nM; for inhibition at 10 µM: read-out: percent value in parentheses beside EC50 >10 μM.

Experiment [2] concerns the target recombinant DYRK1A kinase (Homo sapiens (Human), UniProt Q13627). The experiment is described as follows: DYRK1A kinase assay (Ser/Thr 18 peptide Z-lyte FRET).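 Also: Read-out is the coumarin to fluorescein emission ratio, referenced to unphosphorylated (0%) and phosphorylated (100%) Ser/Thr 18 peptide controls, values from dose-response curves by non-linear regression.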 The experiment is classed as biochemical. Particulars: 30 μM ATP, 1 h room temperature.
In experiment [3] the test system is Tau phosphorylation at Ser396 (pSer396). The experiment is described as follows: Tau phosphorylation assay (pSer396 ELISA / western blot) in SH-SY5Y cells.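 Also: EC50 for reduction of Tau pSer396 in lysed cells, measured by colorimetric ELISA or chemiluminescent western blot, both using the same pSer396 antibody.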 The experiment is classed as cell-based, human. Particulars: Homo sapiens; SH-SY5Y cells, overnight (16-18 h) exposure; read-out: pSer396 Tau EC50. (An ELISA detects its analyte on a solid surface through an enzyme-linked reagent.)

A further experiment concerns the target recombinant GSK3β kinase (Homo sapiens (Human), UniProt P49841). The experiment is described as follows: GSK3β kinase assay (Ser/Thr 09 peptide Z-lyte FRET).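 Also: kinase activity read as coumarin to fluorescein emission ratio, 11-point threefold dilutions from 10 µM to 0.0003 µM in duplicate, unphosphorylated and phosphorylated peptide as 0% and 100% controls.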 Type of experiment: biochemical. Particulars: 46 μM ATP, 1 h room temperature.
The subject of experiment [4] is Wnt pathway (Sp5-Luc reporter, TCF/LEF binding sites) in SW480 colon carcinoma cells. Put plainly: Screening assay for Wnt activity: Sp5-Luc reporter gene assay.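 As to all read-outs here: firefly luciferase luminescence read in stably transduced SW480 cells carrying the Sp5 promoter reporter with eight TCF/LEF sites, compounds given in 0.1% DMSO final.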 Particulars: Homo sapiens; for EC50: Sp5-Luc reporter, SW480 cells, 36 to 48 hours. Type of experiment: cell-based, human.
Experimental: The screening assay for Wnt activity is described as follows.
Following incubation, 15 μl of BriteLite Plus luminescence reagent (Perkin Elmer) was added to each well of the 384-well assay plates. The plates were placed on an orbital shaker for 2 min and then luminescence was quantified using the Envision (Perkin Elmer) plate reader.
For experiment [5], the system named is SW480 colon carcinoma cells. Put plainly: Cell viability assay (CellTiter-Glo). Type of experiment: cell-based, human. The note with it: Homo sapiens; for EC50: 96 h, SW480 cells, CellTiter-Glo, four days incubation; for inhibition at 10 µM: SW480, read-out: percent inhibition at 10 μM. For orientation: Cellular ATP, detected with luciferase, serves as a proxy for viable cell number.

Chain of recombinant GSK3β kinase (P49841 whole entry): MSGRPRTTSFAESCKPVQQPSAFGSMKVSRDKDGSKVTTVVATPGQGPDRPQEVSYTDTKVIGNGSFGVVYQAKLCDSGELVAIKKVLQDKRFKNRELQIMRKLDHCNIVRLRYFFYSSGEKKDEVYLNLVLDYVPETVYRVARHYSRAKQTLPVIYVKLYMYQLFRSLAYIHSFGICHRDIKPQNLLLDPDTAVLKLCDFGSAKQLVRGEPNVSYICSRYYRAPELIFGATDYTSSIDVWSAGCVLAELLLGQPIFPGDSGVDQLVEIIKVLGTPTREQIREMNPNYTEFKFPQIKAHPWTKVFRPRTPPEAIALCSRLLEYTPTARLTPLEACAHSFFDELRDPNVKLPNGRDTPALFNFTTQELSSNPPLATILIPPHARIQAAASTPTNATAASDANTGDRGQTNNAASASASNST
Experimental for IL-6: After 22 hour incubation, a mixture of anti-IL6 XL665 and anti-IL-6 Cryptate diluted in reconstitution buffer (Catalog #62IL6PEC, Cisbio Inc., Bedford, Mass.) was added to each well. […] All samples were processed in duplicate. […] EC50 was determined using software generated by Dotmatics Limited (Windhill Bishops Stortford Herts, UK) using the Levenberg-Marquardt 4 parameter fitting procedure with finite different gradients.

Consider `Cn1ncc(-c2ccc3cnc(NC(=O)C(C)(C)F)cc3c2)c1CN1CCCCC1` [Compound 784, 2-Fluoro-2-methyl-N-(6-(1-methyl-5-(piperidin-1-ylmethyl)-1H-pyrazol-4-yl)isoquinolin-3-yl)propanamide], for which the figures for the inhibition at 10 µM (in the experiment with IL-6; in experiment [1]; in experiment [5]) were 3.7%, 37.4% and 39.7%, respectively. The EC50 in the experiment with IL-6 is greater than 10000 nM; in experiment [1], greater than 10000 nM; in experiment [2], 10.8 nM; in experiment [3], 2200 nM; at recombinant GSK3β kinase, 133 nM; in experiment [4] it was 5880 nM. In addition, the EC50 in experiment [5] was greater than 10000 nM.
As to `CC(C(=O)Nc1cc2cc(-c3cnn(C)c3)ccc2cn1)N1CCCCC1` (stereo not shown) [Compound 314, N-(6-(1-Methyl-1H-pyrazol-4-yl)isoquinolin-3-yl)-2-(piperidin-1-yl) propanamide], the half-maximal effective concentration (EC50) with IL-6 came out at 1270 nM; in experiment [1], 45 nM; in experiment [2], 22.1 nM; in experiment [3] it was 128 nM; at recombinant GSK3β kinase, 12 nM; in experiment [4], 859 nM. In addition, a half-maximal effect in experiment [5] (EC50) was put at 1200 nM.
For the compound `C[C@H]1CCCN1CC(=O)Nc1cc2cc(-c3cnn(C)c3)ccc2cn1` [Compound 290, (S)—N-(6-(1-Methyl-1H-pyrazol-4-yl)isoquinolin-3-yl)-2-(2-methylpyrrolidin-1-yl)acetamide], the EC50 with IL-6 was 4780 nM; in experiment [1] it was 1060 nM; in experiment [2], 5.8 nM; in experiment [3] it was 490 nM; at recombinant GSK3β kinase it was 75 nM; in experiment [4] it was 5230 nM. Also, a half-maximal effect in experiment [5] (EC50) was put at 3780 nM.
For the compound `Cc1nnc(-c2ccc3cnc(NC(=O)CN4CCCC4)cc3c2)s1` [Compound 932, N-(6-(5-Methyl-1,3,4-thiadiazol-2-yl)isoquinolin-3-yl)-2-(pyrrolidin-1-yl) acetamide], the inhibition at 10 µM in the experiment on IL-6 was 7.5%. For the same compound, the EC50 with IL-6 is greater than 10000 nM; in experiment [1], 594 nM; in experiment [2], 16.9 nM; in experiment [3] it was 357 nM; on recombinant GSK3β kinase, 14 nM; in experiment [4] it was 946 nM. In experiment [5], a half-maximal response (EC50) required 5450 nM.
Take `Cn1cc(-c2cc(F)c3cnc(NC(=O)C4CCN(CCF)CC4)cc3c2)cn1` [Compound 368, N-(8-Fluoro-6-(1-methyl-1H-pyrazol-4-yl)isoquinolin-3-yl)-1-(2-fluoroethyl) piperidine-4-carboxamide]: the EC50 came to 1190 nM in the experiment on IL-6; 272 nM in experiment [1]; 7.9 nM in experiment [2]; 660 nM in experiment [3]; 51 nM on recombinant GSK3β kinase; 689 nM in experiment [4]. The same compound showed a half-maximal effective concentration (EC50) in experiment [5] of 651 nM.
As to `CN1CCN(CC(=O)Nc2cc3cc(-c4cnn(C)c4)cc(F)c3cn2)CC1` [Compound 968, N-(8-Fluoro-6-(1-methyl-1H-pyrazol-4-yl)isoquinolin-3-yl)-2-(4-methylpiperazin-1-yl)acetamide], the EC50 in the experiment on IL-6 was 9240 nM; in experiment [1] it was greater than 10000 nM; in experiment [2], 31.4 nM; in experiment [3] it was 2700 nM; on recombinant GSK3β kinase, 61 nM; in experiment [4], greater than 10000 nM. In addition, the EC50 in experiment [5] is greater than 10000 nM. Further, the inhibition at 10 µM in experiment [1] amounted to 24.1%; in experiment [4] (SW480, read-out: percent inhibition at 10 μM), 38%; in experiment [5] it was 14.5%.
As to `Cc1ncc(-c2ccc3cnc(NC(=O)[C@H]4CC[C@H](CN5CC(F)C5)CC4)cc3c2)o1` [Compound 1018, trans-4-((3-Fluoroazetidin-1-yl)methyl)-N-(6-(2-methyloxazol-5-yl)isoquinolin-3-yl)cyclohexane-1-carboxamide], the EC50 in the experiment with IL-6 worked out at 441 nM; in experiment [1], 88 nM; in experiment [2], 2.5 nM; in experiment [3], 280 nM; at recombinant GSK3β kinase it was 54 nM; in experiment [4] it was 608 nM. Besides, in experiment [5], the 50% effective concentration (EC50) worked out at 498 nM.
In the case of `Cn1cc(-c2ccc3cnc(NC(=O)C4CCNCC4)cc3c2)nn1` [Compound 452, N-(6-(1-Methyl-1H-1,2,3-triazol-4-yl)isoquinolin-3-yl)piperidine-4-carboxamide], the EC50 in the experiment with IL-6 came out at 2970 nM; in experiment [1], 220 nM; in experiment [2], 0.4 nM; in experiment [3], 912 nM; at recombinant GSK3β kinase, 7 nM; in experiment [4], 787 nM. In experiment [5], this compound gave a concentration giving a half-maximal response (EC50) of 1450 nM.
In the case of `Cn1cc(-c2ccc3cnc(NC(=O)CN4CCC(C(F)(F)F)CC4)cc3c2)cn1` [Compound 294, N-(6-(1-Methyl-1H-pyrazol-4-yl)isoquinolin-3-yl)-2-(4-(trifluoromethyl)piperidin-1-yl)acetamide], the EC50 in the experiment with IL-6 was 6230 nM; in experiment [1], greater than 10000 nM; in experiment [2], 12.4 nM; in experiment [3] it was 905 nM; on recombinant GSK3β kinase, 41 nM; in experiment [4] it was 5190 nM. In experiment [5], the 50% effective concentration (EC50) amounted to 4150 nM. Also, in experiment [1], the inhibition at 10 µM was determined as 41.3%.
Regarding `Cc1ncc(-c2ccc3cnc(NC(=O)CN4CCOCC4)cc3c2)s1` [Compound 994, N-(6-(2-Methylthiazol-5-yl)isoquinolin-3-yl)-2-morpholinoacetamide], the inhibition at 10 µM is 31.8% in the experiment with IL-6 and 36.8% in experiment [5]. Besides, the EC50 was greater than 10000 nM in the experiment with IL-6; 567 nM in experiment [1]; 12.9 nM in experiment [2]; 1900 nM in experiment [3]; 110 nM on recombinant GSK3β kinase; 7900 nM in experiment [4]. The same compound came in with an EC50 in experiment [5] greater than 10000 nM.
For the compound `O=C(Nc1cc2cc(-c3cnco3)ccc2cn1)C1CCN(C(=O)CN2CCCC2)CC1` [Compound 977, N-(6-(Oxazol-5-yl)isoquinolin-3-yl)-1-(2-(pyrrolidin-1-yl)acetyl)piperidine-4-carboxamide], the EC50 in the experiment with IL-6 is 404 nM; in experiment [1] it was 136 nM; in experiment [2], 3.2 nM; in experiment [3], 426 nM; on recombinant GSK3β kinase, 246 nM; in experiment [4] it was 875 nM. Further, the EC50 in experiment [5] came to 615 nM.
Turning to `CO[C@H]1CC[C@@H](C(=O)Nc2cc3cc(-c4nnc(C)s4)ccc3cn2)CC1` [Compound 1001, cis-4-Methoxy-N-(6-(5-methyl-1,3,4-thiadiazol-2-yl)isoquinolin-3-yl) cyclohexane-1-carboxamide], the EC50 was greater than 10000 nM with IL-6; 65 nM in experiment [1]; 7.3 nM in experiment [2]; 3300 nM in experiment [3]; 9 nM on recombinant GSK3β kinase; 593 nM in experiment [4]. The midpoint of the response in experiment [5], the EC50, lay at 677 nM.
`Cc1ncc(-c2ccc3cnc(NC(=O)C4(F)CC4)cc3c2)n1C` [Compound 376, N-(6-(1,2-Dimethyl-1H-imidazol-5-yl)isoquinolin-3-yl)-1-fluorocyclopropane-1-carboxamide]: the inhibition at 10 µM in the experiment on IL-6 was found to be 11.8%; in experiment [1], 21%. For the same compound, the concentration giving a half-maximal response (EC50) was greater than 10000 nM in the experiment with IL-6; greater than 10000 nM in experiment [1]; 5.5 nM in experiment [2]; 7900 nM in experiment [3]; 710 nM on recombinant GSK3β kinase; 2210 nM in experiment [4]. Also, in experiment [5], the EC50 was determined as 4200 nM.
`Cn1cc(-c2ccc3cnc(NC(=O)C4CC5(C4)CN(CCF)C5)cc3c2)cn1` [Compound 326, 2-(2-Fluoroethyl)-N-(6-(1-methyl-1H-pyrazol-4-yl)isoquinolin-3-yl)-2-azaspiro[3.3]heptane-6-carboxamide]: the 50% effective concentration (EC50) in the experiment with IL-6 is 380 nM; in experiment [1] it was greater than 10000 nM; in experiment [2], 2.9 nM; in experiment [3], 574 nM; on recombinant GSK3β kinase, 19 nM; in experiment [4] it was 438 nM. In experiment [5], this compound came in with a half-maximal effective concentration (EC50) of 400 nM. Besides, in experiment [1], the inhibition at 10 µM is 47.2%.
Regarding `CC(C)CN1CCC(C(=O)Nc2cc3cc(-c4cnn(C)c4)c(F)cc3cn2)CC1` [Compound 370, N-(7-Fluoro-6-(1-methyl-1H-pyrazol-4-yl)isoquinolin-3-yl)-1-isobutylpiperidine-4-carboxamide], the EC50 came to 3710 nM in the experiment on IL-6; 379 nM in experiment [1]; 3.1 nM in experiment [2]; 256 nM in experiment [3]; 89 nM at recombinant GSK3β kinase; 608 nM in experiment [4]. The compound also gave an EC50 in experiment [5] of 1250 nM.
On to `[2H]C([2H])([2H])n1cc(-c2cc3cc(NC(=O)CN4CCCCC4)ncc3cc2F)cn1` [Compound 1015, N-(7-Fluoro-6-(1-(methyl-d3)-1H-pyrazol-4-yl)isoquinolin-3-yl)-2-(piperidin-1-yl)acetamide], for which the concentration for a half-maximal effect (EC50) with IL-6 is 3120 nM; in experiment [1], greater than 10000 nM; in experiment [2], 5.8 nM; in experiment [3], 523 nM; on recombinant GSK3β kinase it was 101 nM; in experiment [4], 3730 nM. The EC50 in experiment [5] is 6420 nM. Also, the inhibition at 10 µM in experiment [1] stood at 9.7%.
Consider `CC(C)CN1CCC[C@@H](C(=O)Nc2cc3cc(-c4cn(C)nn4)ccc3cn2)C1` [Compound 483, (R)-1-Isobutyl-N-(6-(1-methyl-1H-1,2,3-triazol-4-yl)isoquinolin-3-yl) piperidine-3-carboxamide], for which the EC50 with IL-6 was 9620 nM; in experiment [1] it was 315 nM; in experiment [2], 11.3 nM; in experiment [3] it was 611 nM; on recombinant GSK3β kinase it was 45 nM; in experiment [4] it was 1870 nM. The compound also registered an EC50 in experiment [5] of 7340 nM.

One may read the EC50 as the midpoint of the concentration-response curve.
